Test results: patent publication US12503490B2, “Method of treating Gram-negative bacterial infection with isolated darobactin compounds” (Northeastern University, priority 2018, dated 2025)

Tested on: E. coli
Test: Antagonization assay by lipopolysaccharide (LPS)
Assay type: cell-based
Set-up: key: +: grown; −: not grown
Description: darobactin A is a large compound of 966 Da molecular weight. The limit for penetration into Gram-negative bacteria is around 500 Da. It therefore seemed possible that darobactin A acted on the cell surface, similarly to polymyxin which targets lipopolysaccharide (LPS). In order to test this, activity of darobactin A was tested in the presence of LPS. E. coli was inoculated into 5 mL MHIIB, and grown until the cell density reach to OD600=0.1-0.9. The cell suspension was diluted to OD600=0.002 with 2×MHIIB. 40 μL of LPS solution (final concentration range from 0 to 800 μg/mL) and 2 μL of 2×MIC antibiotic solution (final concentration: polymyxin; 0.5 μg/mL, ampicillin; 16 μg/mL, darobactin A; 16 μg/mL) were mixed in a 96-well plate and fill up to 50 μL by sterile dI water. LPS and antibiotic solutions were mixed with 50 μL of E. coli cell suspensions, and incubated at 37° C. for 20 hours. The growth of E. coli was determined visually (Table 3).

Molecule	growth of E. coli with 2× MIC antibiotic (LPS 0 μg/mL)	growth of E. coli with 2× MIC antibiotic (LPS 3.13 μg/mL)	growth of E. coli with 2× MIC antibiotic (LPS 6.25 μg/mL)	growth of E. coli with 2× MIC antibiotic (LPS 800 μg/mL)
CC1(C)S[C@@H]2[C@H](NC(=O)[C@H](N)c3ccccc3)C(=O)N2[C@H]1C(=O)O [Ampicillin]	−	−	−	−
Polymyxin B	−	−	+	+
